The record followed here is PubChem BioAssay AID1332 (Southern Research Institute, 2008).

In this assay the test system is M. tuberculosis H37Rv growth inhibition. The assay is described as follows: Confirmatory growth inhibition assay, mycobacterium tuberculosis h37rv, with cytotoxicity (AID 1332).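 Also: bacteria incubated 7 days before adding Alamar blue readout reagent.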

Molecules are shown by their SMILES. Converted amounts (≈) assume the structure as drawn.

In the case of `O=C1C=CC(=O)c2c1ccc1c2ccc2ccccc21`, the IC90 is 2.17 µg/mL (≈ 8.42 µM).

With `N[C@@H]1CONC1=O`, the IC90 is 1.05 µg/mL (≈ 10.3 µM).

For `CC[C@H](CO)NCCN[C@H](CC)CO`, the IC90 is 0.191 µg/mL (≈ 0.935 µM).

As for `CCCCN(CCCC)CCC(O)c1cc2c(Cl)cc(Cl)cc2c2cc(C(F)(F)F)ccc12` (centres undefined), the IC90 was 1.15 µg/mL (≈ 2.3 µM).

For the compound `CCn1cc(C(=O)O)c(=O)c2cc(F)c(N3CCNC(C)C3)c(F)c21` (centres undefined), the IC90 is 0.258 µg/mL (≈ 0.734 µM).

Turning to `CC(C)(C)c1ccc(C(O)CCCN2CCC(C(O)(c3ccccc3)c3ccccc3)CC2)cc1` (centres undefined), the IC90 was 1.61 µg/mL (≈ 3.42 µM).

Take `CCN(CC)CCNc1ccc(CO)c2sc3ccccc3c(=O)c12`: the IC90 is 19.4 µg/mL (≈ 54.5 µM).

On to `CN1CCN(CCCN2c3ccccc3Sc3ccc(Cl)cc32)CC1`, for which the IC90 was 8.01 µg/mL (≈ 21.4 µM).

Take `CC1COc2c(N3CCN(C)CC3)c(F)cc3c(=O)c(C(=O)O)cn1c23` (centres undefined): the IC90 is 0.067 µg/mL (≈ 0.185 µM).

With `NC[C@H]1O[C@H](O[C@H]2[C@H](O)[C@@H](O[C@H]3O[C@H](CO)[C@@H](O)[C@H](N)[C@H]3O)[C@H](N)C[C@@H]2N)[C@H](N)C[C@@H]1O`, the IC90 is 1.94 µg/mL (≈ 4.16 µM).

With `COc1cccc2c1C(=O)c1c(O)c3c(c(O)c1C2=O)C[C@@](O)(C(C)=O)C[C@@H]3O[C@H]1C[C@H](N)[C@H](O)[C@H](C)O1`, the IC90 is 0.169 µg/mL (≈ 0.32 µM).

For the compound `CC(NCCC(c1ccccc1)c1ccccc1)c1ccccc1` (centres undefined), the IC90 was 8.02 µg/mL (≈ 25.4 µM).

In the case of `Cc1nnc(NS(=O)(=O)c2ccc(N)cc2)s1`, the IC90 is 2.6 µg/mL (≈ 9.61 µM).

Take `Nc1ccc(S(=O)(=O)Nc2ccnn2-c2ccccc2)cc1`: the IC90 was 12.8 µg/mL (≈ 40.7 µM).

For the compound `COc1cc(NS(=O)(=O)c2ccc(N)cc2)ncn1`, the IC90 is 3.78 µg/mL (≈ 13.5 µM).

Take `O=c1c2ccccc2[se]n1-c1ccccc1`: the IC90 is 2.16 µg/mL (≈ 7.87 µM).

Turning to `CO[C@H]1/C=C/O[C@@]2(C)Oc3c(C)c(O)c4c(O)c(c(/C=N/N5CCN(C)CC5)c(O)c4c3C2=O)NC(=O)/C(C)=C\C=C\[C@H](C)[C@H](O)[C@@H](C)[C@@H](O)[C@@H](C)[C@H](OC(C)=O)[C@@H]1C`, the IC90 was 0.04 µg/mL (≈ 0.0486 µM).

As to `N[C@H]1CONC1=O`, the IC90 was 2.27 µg/mL (≈ 22.3 µM).

With `C(=C\c1ccccc1)/CN1CCN(C(c2ccccc2)c2ccccc2)CC1`, the IC90 was 7.6 µg/mL (≈ 20.6 µM).

In the case of `CCn1cc(C(=O)O)c(=O)c2cc(F)c(N3CCNCC3)cc21`, the IC90 is 0.81 µg/mL (≈ 2.54 µM).

In the case of `CC(C)N=c1cc2n(-c3ccc(Cl)cc3)c3ccccc3nc-2cc1Nc1ccc(Cl)cc1`, the IC90 is 0.04 µg/mL (≈ 0.0845 µM).

Turning to `C=C(NC(=O)C(=C)NC(=O)c1csc(C2=N[C@H]3c4csc(n4)[C@H]4NC(=O)c5csc(n5)[C@H]([C@@](C)(O)[C@@H](C)O)NC(=O)[C@H]5CSC(=N5)/C(=C\C)NC(=O)[C@H]([C@@H](C)O)NC(=O)c5csc(n5)[C@]3(CC2)NC(=O)[C@H](C)NC(=O)C(=C)NC(=O)[C@H](C)NC(=O)[C@H](C(C)CC)N[C@@H]2C=Cc3c([C@H](C)O)cc(nc3[C@H]2O)C(=O)O[C@@H]4C)n1)C(N)=O` (some centres undefined), the IC90 was 0.357 µg/mL (≈ 0.214 µM).

`O=C1NCN(c2ccccc2)C12CCN(CCCC(c1ccc(F)cc1)c1ccc(F)cc1)CC2`: the IC90 is 2.64 µg/mL (≈ 5.56 µM).

Turning to `CC1=CC(=O)c2ccccc2C1=O`, the IC90 was 5.38 µg/mL (≈ 31.2 µM).

For the compound `N[C@@H](C(=O)N[C@@H]1C(=O)N2C(C(=O)O)=C(Cl)CS[C@H]12)c1ccccc1`, the IC90 was 11.3 µg/mL (≈ 30.6 µM).

With `C=CCOC(Cn1ccnc1)c1ccc(Cl)cc1Cl` (centres undefined), the IC90 was 2 µg/mL (≈ 6.73 µM).

Turning to `Cc1c2ccncc2c(C)c2c1[nH]c1ccccc12`, the concentration for an effect of 90% (IC90) is 0.17 µg/mL (≈ 0.69 µM).

With `Cc1c(OCC(F)(F)F)ccnc1CS(=O)c1nc2ccccc2[nH]1` (centres undefined), the IC90 was 10.1 µg/mL (≈ 27.5 µM).

`Nc1nc(=S)c2ncn([C@@H]3O[C@H](CO)[C@@H](O)[C@H]3O)c2[nH]1`: the IC90 was 11.9 µg/mL (≈ 39.7 µM).

Take `COc1ccc(C[C@H](N)C(=O)N[C@H]2[C@@H](O)[C@H](n3cnc4c(N(C)C)ncnc43)O[C@@H]2CO)cc1`: the IC90 was 1.75 µg/mL (≈ 3.71 µM).

For `CCN(CC)CCOc1ccc(/C(=C(/Cl)c2ccccc2)c2ccccc2)cc1`, the IC90 was 6.13 µg/mL (≈ 15.1 µM).

As for `CN1CCN(CCCN2c3ccccc3Sc3ccc(C(F)(F)F)cc32)CC1`, the IC90 is 2.77 µg/mL (≈ 6.8 µM).

For the compound `CCSc1ccc2c(c1)N(CCCN1CCN(C)CC1)c1ccccc1S2`, the IC90 is 6.34 µg/mL (≈ 15.9 µM).

With `Cc1cc(C(C)(C)CC(C)(C)C)ccc1OCCOCC[N+](C)(C)Cc1ccccc1`, the IC90 is 4.91 µg/mL.

Take `Cc1cc(NS(=O)(=O)c2ccc(N)cc2)no1`: the IC90 was 4.34 µg/mL (≈ 17.1 µM).

As for `Nc1ccc(S(=O)(=O)Nc2nccs2)cc1`, the IC90 is 1.3 µg/mL (≈ 5.08 µM).

With `CN[C@@H]1[C@H](O[C@H]2[C@H](O[C@@H]3[C@@H](O)[C@H](O)[C@@H](N=C(N)N)[C@H](O)[C@H]3N=C(N)N)O[C@@H](C)[C@]2(O)C=O)O[C@@H](CO)[C@H](O)[C@H]1O`, the IC90 is 1.11 µg/mL (≈ 1.92 µM).

Take `COc1cc(NC(C)CCCN)c2ncccc2c1` (centres undefined): the IC90 was 14.5 µg/mL (≈ 55.9 µM).

With `CSc1ccc2c(c1)C(N1CCN(C)CC1)Cc1ccccc1S2` (centres undefined), the IC90 was 4.56 µg/mL (≈ 12.8 µM).

As a reminder, the IC90 is the point of the concentration-response curve where the effect stands at 90%.
